Experimental data as given in article PMC3914206.

Tests used:
Type in all cases: binding
Design in all cases: KINOMEscan: ABL1(F317L)-phosphorylated / KINOMEscan: ABL1(H396P)-nonphosphorylated / KINOMEscan: ABL1(H396P)-phosphorylated / KINOMEscan: ABL1(M351T)-phosphorylated / KINOMEscan: ABL1(T315I)-phosphorylated / KINOMEscan: ABL1-nonphosphorylated / KINOMEscan: ABL1-phosphorylated / KINOMEscan: ACVR2A / KINOMEscan: ACVR2B / KINOMEscan: ADCK3 / KINOMEscan: ADCK4 / KINOMEscan: AKT1 / KINOMEscan: AKT3 / KINOMEscan: ALK / KINOMEscan: ARK5 / KINOMEscan: AURKA / KINOMEscan: AURKC / KINOMEscan: BIKE / KINOMEscan: BMPR1A / KINOMEscan: BMPR1B / KINOMEscan: BMX / KINOMEscan: BRK / KINOMEscan: BRSK1 / KINOMEscan: BRSK2 / KINOMEscan: CAMK1 / KINOMEscan: CAMK1D / KINOMEscan: CAMK1G / KINOMEscan: CAMK2A / KINOMEscan: CAMK2B / KINOMEscan: AAK1 / KINOMEscan: CAMK2D / KINOMEscan: CAMK2G / KINOMEscan: ABL1(F317I)-nonphosphorylated / KINOMEscan: ABL1(F317I)-phosphorylated / KINOMEscan: ABL1(F317L)-nonphosphorylated: unit: % Ctrl
panel of 442 kinases [1] = target: T1, panel of 442 kinases (Homo sapiens, UniProt Q96BR1); conditions: kinase SGK3; compound concentration 10 µM
T1 construct: purchased KINOMEscan
T1 sequence (Q96BR1 1-496): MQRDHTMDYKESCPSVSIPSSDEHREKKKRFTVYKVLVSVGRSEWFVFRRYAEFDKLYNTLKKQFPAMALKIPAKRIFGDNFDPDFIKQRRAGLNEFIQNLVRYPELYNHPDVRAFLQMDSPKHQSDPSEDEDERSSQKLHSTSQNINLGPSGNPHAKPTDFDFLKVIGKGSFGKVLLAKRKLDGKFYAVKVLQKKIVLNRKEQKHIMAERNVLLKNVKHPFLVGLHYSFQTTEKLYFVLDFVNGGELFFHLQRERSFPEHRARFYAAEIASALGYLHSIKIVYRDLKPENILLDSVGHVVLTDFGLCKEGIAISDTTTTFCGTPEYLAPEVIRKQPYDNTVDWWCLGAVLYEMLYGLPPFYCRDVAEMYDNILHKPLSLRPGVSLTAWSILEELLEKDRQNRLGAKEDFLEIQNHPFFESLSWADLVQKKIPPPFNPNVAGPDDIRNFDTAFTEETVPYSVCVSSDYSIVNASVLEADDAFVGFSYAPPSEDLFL
Description: (§1) We assessed the selectivity of members of this scaffold using the KINOMEscan methodology across a near comprehensive panel of 442 kinases [[18,27]].

panel of 442 kinases [2] = target: T2, panel of 442 kinases (Homo sapiens, UniProt Q9UQB9); conditions: Compound Concentration 10 µM
T2 construct: purchased KINOMEscan
T2 sequence (Q9UQB9 1-309): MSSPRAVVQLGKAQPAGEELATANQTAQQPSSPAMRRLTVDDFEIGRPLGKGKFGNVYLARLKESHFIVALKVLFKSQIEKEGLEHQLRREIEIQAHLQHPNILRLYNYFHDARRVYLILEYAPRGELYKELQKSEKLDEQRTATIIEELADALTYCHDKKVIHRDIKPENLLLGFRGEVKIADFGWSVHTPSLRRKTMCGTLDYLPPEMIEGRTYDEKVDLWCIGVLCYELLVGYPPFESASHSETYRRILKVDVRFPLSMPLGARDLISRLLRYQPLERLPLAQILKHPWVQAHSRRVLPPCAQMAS
Description: as §1

panel of 442 kinases [3] = target: T3, panel of 442 kinases (Homo sapiens, UniProt Q15418); conditions: Compound Concentration 10 µM
T3 construct: purchased KINOMEscan
T3 sequence (Q15418 whole entry): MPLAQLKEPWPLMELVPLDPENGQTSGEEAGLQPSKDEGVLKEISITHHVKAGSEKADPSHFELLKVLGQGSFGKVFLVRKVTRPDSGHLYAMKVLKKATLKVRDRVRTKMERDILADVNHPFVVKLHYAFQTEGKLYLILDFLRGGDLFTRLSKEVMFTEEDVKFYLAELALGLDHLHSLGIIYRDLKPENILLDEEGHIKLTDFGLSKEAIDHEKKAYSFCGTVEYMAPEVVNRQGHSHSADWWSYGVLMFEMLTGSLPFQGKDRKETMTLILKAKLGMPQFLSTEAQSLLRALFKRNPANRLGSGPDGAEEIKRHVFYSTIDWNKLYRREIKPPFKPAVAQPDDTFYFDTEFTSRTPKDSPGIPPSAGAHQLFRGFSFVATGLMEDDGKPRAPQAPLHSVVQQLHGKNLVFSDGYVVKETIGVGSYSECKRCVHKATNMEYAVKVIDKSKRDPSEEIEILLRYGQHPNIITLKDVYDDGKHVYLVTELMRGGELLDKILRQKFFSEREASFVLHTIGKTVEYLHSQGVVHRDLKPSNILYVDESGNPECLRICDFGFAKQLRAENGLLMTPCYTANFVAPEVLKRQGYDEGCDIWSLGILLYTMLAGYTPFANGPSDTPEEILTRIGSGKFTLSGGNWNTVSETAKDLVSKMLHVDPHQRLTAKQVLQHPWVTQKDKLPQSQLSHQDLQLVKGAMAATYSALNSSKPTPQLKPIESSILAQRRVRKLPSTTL
Description: as §1

Row | Structure (SMILES) | % Ctrl, SGK3 (panel of 442 kinases [1]) [% Ctrl] | KINOMEscan: AURKC (panel of 442 kinases [2]) | KINOMEscan: RSK1(Kin.Dom.1-N-terminal) (panel of 442 kinases [3]) | KINOMEscan: RSK1(Kin.Dom.2-C-terminal) (panel of 442 kinases [3])
1 | COc1cc(C(=O)N2CCC(N3CCN(C)CC3)CC2)ccc1Nc1ncc2c(n1)N(C)c1ccccc1C(=O)N2C [15 (LRRK2-IN-1)] | 95 | 50 | 73 | 10
2 | COc1cc(C(=O)N2CCC(N3CCN(C)CC3)CC2)ccc1Nc1ncc2c(n1)N1CCc3cccc(c31)C(=O)N2C [Compound 24] | 100 | 50 | 71 | 22
3 | COc1cc(C(=O)N2CCC(N3CCN(C)CC3)CC2)ccc1Nc1ncc2c(n1)N(C1CCCC1)c1ccccc1C(=O)N2C [Compound 25, 11-cyclopentyl-2-((2-methoxy-4-(4-(4-methylpiperazin-1-yl)piperidine-1-carbonyl)phenyl)amino)-5-methyl-5H-benzo[e]pyrimido[5,4-b][1,4]diazepin-6(11H)-one] | 100 | 38 | 75 | 63
4 | CCOc1cc(C(=O)N2CCC(N3CCN(C)CC3)CC2)ccc1Nc1ncc2c(n1)N(C1CCCC1)c1ccccc1C(=O)N2C [Compound 26] | 83 | 66 | 100 | 88
